# Experimental data taken from ChEMBL document CHEMBL6153174, “Design and Synthesis of Novel Deazapurine DNMT 1 Inhibitors with In Vivo Efficacy in DLBCL” (J Med Chem, 2025).
# Key:
# MV4-11 = assay: Antiproliferative activity against human MV4-11 cells assessed as inhibition of cell viability measured after 72 hrs by MTT assay; format: functional, cell-based; details: MV4-11, 72 h
# [1] = molecular target: T1, DNA (cytosine-5)-methyltransferase 1 (Homo sapiens, UniProt P26358); assay: Inhibition of DNMT1 (unknown origin) at 5 uM preincubated for 15 mins followed by substrate and [3H-SAM] addition and measured after 60 mins by microbeta analysis relative to control; details: time 75.0 min
# T1 sequence (P26358 whole entry): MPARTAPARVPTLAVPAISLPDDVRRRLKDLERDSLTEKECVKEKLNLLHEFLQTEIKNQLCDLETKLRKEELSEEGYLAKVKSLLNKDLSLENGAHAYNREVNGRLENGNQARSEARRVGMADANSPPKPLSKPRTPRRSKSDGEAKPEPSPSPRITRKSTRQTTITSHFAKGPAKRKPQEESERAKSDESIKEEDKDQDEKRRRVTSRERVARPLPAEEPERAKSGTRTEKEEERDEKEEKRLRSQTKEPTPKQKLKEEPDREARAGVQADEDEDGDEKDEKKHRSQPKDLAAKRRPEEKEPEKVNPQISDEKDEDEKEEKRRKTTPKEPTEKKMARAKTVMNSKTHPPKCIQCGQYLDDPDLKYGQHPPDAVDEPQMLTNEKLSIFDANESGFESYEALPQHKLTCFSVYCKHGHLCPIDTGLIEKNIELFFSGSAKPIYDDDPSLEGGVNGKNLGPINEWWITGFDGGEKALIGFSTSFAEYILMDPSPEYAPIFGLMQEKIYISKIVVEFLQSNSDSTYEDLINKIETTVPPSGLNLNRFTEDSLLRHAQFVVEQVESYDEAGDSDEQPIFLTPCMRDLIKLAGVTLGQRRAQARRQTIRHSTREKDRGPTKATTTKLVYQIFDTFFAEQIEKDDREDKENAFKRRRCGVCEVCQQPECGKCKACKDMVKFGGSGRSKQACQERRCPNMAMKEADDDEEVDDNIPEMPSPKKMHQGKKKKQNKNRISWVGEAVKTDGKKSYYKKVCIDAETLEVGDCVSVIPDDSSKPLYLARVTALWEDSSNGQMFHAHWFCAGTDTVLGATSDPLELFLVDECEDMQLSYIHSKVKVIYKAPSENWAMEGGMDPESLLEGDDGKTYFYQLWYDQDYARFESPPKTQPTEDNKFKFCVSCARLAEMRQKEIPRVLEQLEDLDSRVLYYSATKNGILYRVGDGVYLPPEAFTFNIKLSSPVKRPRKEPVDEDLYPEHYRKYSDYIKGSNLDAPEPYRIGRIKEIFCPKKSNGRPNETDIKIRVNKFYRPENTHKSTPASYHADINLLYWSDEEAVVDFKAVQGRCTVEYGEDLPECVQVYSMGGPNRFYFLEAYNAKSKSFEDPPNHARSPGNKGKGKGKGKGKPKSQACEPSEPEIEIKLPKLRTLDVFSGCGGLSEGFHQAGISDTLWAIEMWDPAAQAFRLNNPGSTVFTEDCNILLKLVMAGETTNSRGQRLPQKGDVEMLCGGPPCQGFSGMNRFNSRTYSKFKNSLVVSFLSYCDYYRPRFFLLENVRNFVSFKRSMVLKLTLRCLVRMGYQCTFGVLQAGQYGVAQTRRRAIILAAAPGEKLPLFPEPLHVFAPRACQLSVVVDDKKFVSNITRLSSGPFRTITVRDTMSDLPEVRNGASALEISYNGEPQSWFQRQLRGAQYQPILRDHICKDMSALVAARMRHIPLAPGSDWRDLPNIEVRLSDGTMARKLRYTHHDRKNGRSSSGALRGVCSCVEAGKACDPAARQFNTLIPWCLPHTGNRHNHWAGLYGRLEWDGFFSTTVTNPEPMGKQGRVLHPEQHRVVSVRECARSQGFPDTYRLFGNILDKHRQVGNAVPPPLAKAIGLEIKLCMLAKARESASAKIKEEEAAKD
# U-937 = assay: Antiproliferative activity against human U-937 cells assessed as inhibition of cell viability measured after 72 hrs by MTT assay; format: functional, cell-based; details: U-937, 72 h
# [2] = molecular target: T2, Histone-lysine N-methyltransferase EHMT2 (Homo sapiens) (UniProt Q96KQ7); assay: Inhibition of G9a (unknown origin) at 5 uM preincubated for 15 mins followed by substrate and [3H-SAM] addition and measured after 60 mins by microbeta analysis relative to control; details: time 75.0 min
# T2 sequence (whole entry): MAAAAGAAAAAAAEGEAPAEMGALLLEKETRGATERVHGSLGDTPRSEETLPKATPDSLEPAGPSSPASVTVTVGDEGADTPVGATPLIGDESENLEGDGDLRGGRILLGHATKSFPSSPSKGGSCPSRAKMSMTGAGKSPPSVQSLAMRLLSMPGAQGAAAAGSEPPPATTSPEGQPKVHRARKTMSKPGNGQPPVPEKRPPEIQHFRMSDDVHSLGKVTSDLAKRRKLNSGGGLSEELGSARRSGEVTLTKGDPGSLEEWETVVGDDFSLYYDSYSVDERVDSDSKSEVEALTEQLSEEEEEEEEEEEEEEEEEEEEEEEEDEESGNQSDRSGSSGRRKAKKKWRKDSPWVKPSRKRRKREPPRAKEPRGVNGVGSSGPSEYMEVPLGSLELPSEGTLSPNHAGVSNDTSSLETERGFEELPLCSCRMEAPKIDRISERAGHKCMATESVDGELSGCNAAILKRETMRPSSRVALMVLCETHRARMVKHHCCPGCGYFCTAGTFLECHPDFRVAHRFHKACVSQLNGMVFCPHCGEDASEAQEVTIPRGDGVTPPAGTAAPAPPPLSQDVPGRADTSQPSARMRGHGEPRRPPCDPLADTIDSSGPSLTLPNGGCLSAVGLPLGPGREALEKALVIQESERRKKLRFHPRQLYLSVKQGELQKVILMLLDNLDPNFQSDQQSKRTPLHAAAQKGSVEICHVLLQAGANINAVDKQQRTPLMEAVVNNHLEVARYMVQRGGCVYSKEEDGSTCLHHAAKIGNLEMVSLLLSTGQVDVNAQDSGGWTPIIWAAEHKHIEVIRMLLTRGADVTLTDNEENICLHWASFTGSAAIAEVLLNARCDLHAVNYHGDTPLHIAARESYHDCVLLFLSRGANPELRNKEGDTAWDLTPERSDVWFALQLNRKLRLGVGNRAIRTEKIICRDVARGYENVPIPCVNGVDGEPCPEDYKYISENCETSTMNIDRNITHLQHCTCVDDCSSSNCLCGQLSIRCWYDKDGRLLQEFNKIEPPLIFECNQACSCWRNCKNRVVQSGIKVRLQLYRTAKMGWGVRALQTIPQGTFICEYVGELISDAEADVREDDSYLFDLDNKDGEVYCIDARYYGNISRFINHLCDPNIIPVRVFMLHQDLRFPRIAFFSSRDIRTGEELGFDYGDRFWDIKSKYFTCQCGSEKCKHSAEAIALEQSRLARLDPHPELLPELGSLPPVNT
# [3] = molecular target: T3, DNA (cytosine-5)-methyltransferase 3A (Homo sapiens, UniProt Q9Y6K1); assay: Inhibition of DNMT3A (unknown origin) at 5 uM preincubated for 15 mins followed by substrate and [3H-SAM] addition and measured after 60 mins by microbeta analysis relative to control; details: time 75.0 min
# T3 sequence (Q9Y6K1 whole entry, looked up): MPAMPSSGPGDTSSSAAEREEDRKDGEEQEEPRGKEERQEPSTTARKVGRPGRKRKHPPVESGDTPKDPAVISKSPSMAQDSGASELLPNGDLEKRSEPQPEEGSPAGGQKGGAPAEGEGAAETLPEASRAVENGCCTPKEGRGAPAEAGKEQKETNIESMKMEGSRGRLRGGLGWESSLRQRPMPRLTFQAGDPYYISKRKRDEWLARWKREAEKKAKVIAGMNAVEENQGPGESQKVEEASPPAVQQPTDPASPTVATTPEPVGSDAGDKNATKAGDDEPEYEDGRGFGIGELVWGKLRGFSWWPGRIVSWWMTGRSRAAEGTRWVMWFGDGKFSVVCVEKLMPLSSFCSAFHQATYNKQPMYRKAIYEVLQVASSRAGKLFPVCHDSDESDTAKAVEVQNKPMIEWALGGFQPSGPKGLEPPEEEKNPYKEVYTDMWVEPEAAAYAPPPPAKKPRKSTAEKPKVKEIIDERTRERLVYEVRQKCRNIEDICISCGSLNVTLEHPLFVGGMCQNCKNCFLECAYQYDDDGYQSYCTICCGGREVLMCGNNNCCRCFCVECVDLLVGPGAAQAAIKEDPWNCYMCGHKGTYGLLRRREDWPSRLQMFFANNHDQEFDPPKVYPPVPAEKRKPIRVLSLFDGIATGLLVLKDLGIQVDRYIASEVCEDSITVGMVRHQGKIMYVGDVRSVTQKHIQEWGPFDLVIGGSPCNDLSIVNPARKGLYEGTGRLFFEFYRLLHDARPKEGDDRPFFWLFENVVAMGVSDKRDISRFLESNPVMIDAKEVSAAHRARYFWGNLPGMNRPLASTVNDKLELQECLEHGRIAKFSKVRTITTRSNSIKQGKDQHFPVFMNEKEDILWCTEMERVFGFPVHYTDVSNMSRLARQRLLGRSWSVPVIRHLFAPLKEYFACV
# [4] = molecular target: T1, DNA (cytosine-5)-methyltransferase 1; assay: Inhibition of DNMT1 (unknown origin) preincubated for 15 mins followed by substrate and [3H-SAM] addition and measured after 60 mins by microbeta analysis
# [5] = molecular target: T4, DNA (cytosine-5)-methyltransferase 3B (Homo sapiens, UniProt Q9UBC3); assay: Inhibition of DNMT3B (unknown origin) at 5 uM preincubated for 15 mins followed by substrate and [3H-SAM] addition and measured after 60 mins by microbeta analysis relative to control; details: time 75.0 min
# [6] = molecular target: T1, DNA (cytosine-5)-methyltransferase 1; assay: Inhibition of DNMT1 (unknown origin) at 1 uM preincubated for 15 mins followed by substrate and [3H-SAM] addition and measured after 60 mins by microbeta analysis relative to control; details: time 75.0 min
# [7] = molecular target: T3, DNA (cytosine-5)-methyltransferase 3A; assay: Inhibition of DNMT3A (unknown origin) preincubated for 15 mins followed by substrate and [3H-SAM] addition and measured after 60 mins by microbeta analysis
# [8] = Oral bioavailability in Sprague-Dawley rat at 10 mg/kg measured upto 24 hrs by LC/MS/MS analysis; format: ADME, organism-based; details: in vivo
# [9] = Terminal elimination half life in Sprague-Dawley rat at 10 mg/kg, iv measured upto 24 hrs by LC/MS/MS analysis; format: ADME, organism-based; details: in vivo, read-out: beta t1/2 (converted)
# [10] = Terminal elimination half life in Sprague-Dawley rat at 10 mg/kg, po measured upto 24 hrs by LC/MS/MS analysis; format: ADME, organism-based; details: in vivo, read-out: beta t1/2 (converted)
# [11] = Cmax in Sprague-Dawley rat at 10 mg/kg, iv measured upto 24 hrs by LC/MS/MS analysis; format: ADME, organism-based; details: in vivo
# [12] = AUC (0 to t) in Sprague-Dawley rat at 10 mg/kg, po measured upto 24 hrs by LC/MS/MS analysis; format: ADME, organism-based; details: in vivo
# [13] = Cmax in Sprague-Dawley rat at 10 mg/kg, po measured upto 24 hrs by LC/MS/MS analysis; format: ADME, organism-based; details: in vivo
# [14] = AUC (0 to t) in Sprague-Dawley rat at 10 mg/kg, iv measured upto 24 hrs by LC/MS/MS analysis; format: ADME, organism-based; details: in vivo
# [15] = Volume of distribution at steady state in Sprague-Dawley rat at 10 mg/kg, iv measured upto 24 hrs by LC/MS/MS analysis; format: ADME, organism-based; details: in vivo, read-out: Vdss
# [16] = Clearance in Sprague-Dawley rat at 10 mg/kg, iv measured upto 24 hrs by LC/MS/MS analysis; format: ADME, organism-based; details: in vivo
# [17] = molecular target: T4, DNA (cytosine-5)-methyltransferase 3B; assay: Inhibition of DNMT3B (unknown origin) preincubated for 15 mins followed by substrate and [3H-SAM] addition and measured after 60 mins by microbeta analysis
# [18] = Volume of distribution at steady state in Sprague-Dawley rat at 10 mg/kg, po measured upto 24 hrs by LC/MS/MS analysis; format: ADME, organism-based; details: in vivo
# [19] = Apparent clearance during terminal phase in Sprague-Dawley rat at 10 mg/kg, po measured upto 24 hrs by LC/MS/MS analysis; format: ADME, organism-based; details: in vivo, read-out: CLz/F (converted)
# [20] = molecular target: T5, Histone-lysine N-methyltransferase EHMT2 (Homo sapiens, UniProt Q96KQ7); assay: Inhibition of G9a (unknown origin) preincubated for 15 mins followed by substrate and [3H-SAM] addition and measured after 60 mins by microbeta analysis
# T5 sequence (Q96KQ7 whole entry): T2 sequence (whole entry)
SMILES,IC50 (MV4-11),inhibition [1],IC50 (U-937),inhibition [2],inhibition [3],IC50 [4],inhibition [5],IC50 [7],IC50 [17],also measured
CC(C)N1CCC(Nc2nc(-c3ccccc3)nc3c2ncn3CCCN2CCCC2)CC1,8.85 µM,7.2%,12.4 µM,6%,21%,11.9 µM,0.7%,,,
CN1CCN(c2cc(NCC3CCN(C(=O)C4CCC4)CC3)c3cnn(CCCN4CCOCC4)c3c2)CC1,34.5 µM,,,,,,,,,inhibition [6]: 9.3%
CC(C)N1CCC(Nc2nc(-c3cn[nH]c3)nc3c2ncn3CCCN2CCCC2)CC1,> 100 µM,49%,> 100 µM,-2.4%,8.6%,55.4 µM,-5.5%,,,
CN1CCN(c2cc(NCC3CCN(C(=O)C(C)(C)C)CC3)c3cnn(CCCN4CCOCC4)c3c2)CC1,24.4 µM,,,,,,,,,inhibition [6]: 41%
Cc1ccc(-c2cc(NCC3CCN(C(=O)OCc4ccccc4)CC3)c3cnn(CCCN4CCCC4)c3c2)o1,1.07 µM,0.36%,6.95 µM,9.7%,12%,> 30 µM,53%,,,
Cc1ccc(-c2cc(NC3CCN(C(C)C)CC3)c3cnn(CCCN4CCCC4)c3c2)o1,11.9 µM,56%,12.2 µM,12%,13%,,-9.4%,,,
CN1CCC(Nc2nc(N3CCCN(C)CC3)nc3c2ccn3CCCN2CCCC2)CC1,26 µM,31%,43.3 µM,2.9%,,,,6.17 µM,,
CN1CCN(c2cc(NCC3CCN(C(=O)NC(C)(C)C)CC3)c3cnn(CCCN4CCOCC4)c3c2)CC1,19.4 µM,,,,,,,,,inhibition [6]: 0.91%
Cc1ccc(-c2nc(NC3CCN(C(C)C)CC3)c3ncn(CCCN4CCCC4)c3n2)o1,46.1 µM,37%,55.2 µM,2.5%,22%,23.8 µM,2%,,,

# Continued, in another order:
IC50 (MV4-11),inhibition [1],IC50 (U-937),inhibition [2],inhibition [3],IC50 [4],inhibition [5],IC50 [7],IC50 [17],SMILES,also measured
> 100 µM,35%,> 100 µM,-2%,7.2%,,-6.9%,7.13 µM,,CN1CCC(Nc2nc(-c3cn[nH]c3)nc3c2ccn3CCCN2CCCC2)CC1,
11.1 µM,39%,30.9 µM,-1.9%,11%,,11%,2.8 µM,,CN1CCC(Nc2nc(N3CCN(C)CC3)nc3c2ccn3CCCN2CCCC2)CC1,
3.87 µM,72%,2.61 µM,4.2%,6.8%,,,3.13 µM,> 20 µM,CN1CCC(Nc2nc(-c3ccc(F)nc3)nc3c2ccn3CCCN2CCCC2)CC1,bioavailability ([8]; Sprague-Dawley): 6.5%; half-life [9]: 7.8 h; half-life [10]: 3.5 h; Cmax [11]: 436 ng/mL; AUC(0-t) at 24 h ([12]; Sprague-Dawley): 116 ng·h/mL; Cmax [13]: 17.3 ng/mL; AUC(0-t) at 24 h ([14]; Sprague-Dawley): 2080 ng·h/mL; Vd [15]: 33.8 L/kg; clearance [16]: 45 mL/min/kg; Vdss [18]: 303.6 L/kg; CL/F [19]: 1050 mL/min/kg
11.8 µM,43%,43.6 µM,7.2%,16.5%,,-2.5%,7.95 µM,14.6 µM,Cc1ccc(-c2nc(NC3CCN(C)CC3)c3ccn(CCCN4CCCC4)c3n2)o1,
7.7 µM,69%,10.1 µM,1.3%,8.5%,3.94 µM,3.5%,> 20 µM,> 20 µM,CN1CCC(Nc2nc(-c3ccncc3)nc3c2ccn3CCCN2CCCC2)CC1,IC50 [20]: > 20 µM
1.66 µM,63%,2.45 µM,0.3%,13%,,-6.6%,4 µM,18.3 µM,CN1CCC(Nc2nc(-c3ccc(F)cc3)nc3c2ccn3CCCN2CCCC2)CC1,
10.4 µM,3.3%,12.8 µM,-4.9%,14%,17.4 µM,11%,,,CC(C)N1CCC(Nc2nc(-c3ccc(F)cc3)nc3c2ncn3CCCN2CCCC2)CC1,
10.2 µM,49%,4.53 µM,1%,15%,1.9 µM,1.2%,18.3 µM,> 20 µM,COc1ccc(-c2nc(NC3CCN(C)CC3)c3ccn(CCCN4CCCC4)c3n2)cn1,IC50 [20]: > 20 µM
6.68 µM,45%,18.2 µM,1.1%,8.6%,,6.6%,7.36 µM,,CN1CCC(Nc2nc(-c3ccccc3)nc3c2ccn3CCCN2CCCC2)CC1,
18.3 µM,52%,26.8 µM,-1.1%,17%,1.62 µM,0.6%,16.7 µM,> 20 µM,CN1CCC(Nc2nc(-c3ccc(N)nc3)nc3c2ccn3CCCN2CCCC2)CC1,IC50 [20]: > 20 µM
2.05 µM,82%,1.2 µM,-1.3%,11%,1.22 µM,2.3%,10.9 µM,12.4 µM,CN1CCC(Nc2nc(-c3ccc(C#N)c(F)c3)nc3c2ccn3CCCN2CCCC2)CC1,"F ([8]; po, 10 mg/kg, 24 h): 5.4%; IC50 [20]: > 20 µM; half-life [9]: 12.1 h; half-life [10]: 12.3 h; Cmax [11]: 698 ng/mL; AUCt ([12]; po, 10 mg/kg, 24 h): 302.6 ng·h/mL; Cmax [13]: 29.3 ng/mL; AUCt ([14]; iv, 10 mg/kg, 24 h): 2775.5 ng·h/mL; Vd [15]: 22.4 L/kg; clearance [16]: 21.7 mL/min/kg; Vdss [18]: 673.5 L/kg; CL/F [19]: 843 mL/min/kg"
9.62 µM,20%,17.7 µM,1.9%,6.9%,,-9.7%,,,CN1CCC(Nc2nc(N3CCCCC3)nc3c2ccn3CCCN2CCCC2)CC1,
